# Test results as given in PubChem BioAssay (NCI).
#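 In this assay, cells in 96-well plates receive the compound at five concentrations for 48 hours. Endpoints are linearly interpolated between the surrounding concentrations. TGI: concentration producing complete growth inhibition.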
# What was measured:
# Assay in all cases: DTP human tumour cell line panel, 48 h
# [1] = tested on: NCI-H23 lung
# [2] = tested on: SK-MEL-2 melanoma
# [3] = tested on: HOP-18 NSCLC
# [4] = tested on: DMS 114 small cell lung
# [5] = tested on: SNB-75 CNS
# [6] = tested on: DLD-1 colon
# [7] = tested on: 786-0 renal
# [8] = tested on: LXFL 529 NSCLC
# [9] = tested on: XF 498 CNS
# [10] = tested on: MOLT-4 leukemia
# [11] = tested on: HOP-62 NSCLC
# [12] = tested on: OVCAR-5 ovarian
# [13] = tested on: SN12C renal
# [14] = tested on: NCI-H226 lung
# [15] = tested on: SK-OV-3 ovarian
# [16] = tested on: COLO 205 colon
# [17] = tested on: MALME-3M melanoma
# [18] = tested on: SF-268 CNS
# [19] = tested on: K-562 leukemia
# [20] = tested on: NCI-H460 lung
# [21] = tested on: M19-MEL melanoma
# [22] = tested on: CCRF-CEM leukemia
# [23] = tested on: KM12 colon
# [24] = tested on: CAKI-1 renal
# [25] = tested on: M14 melanoma
# [26] = tested on: OVCAR-8 ovarian
# [27] = tested on: RXF 393 renal
# [28] = tested on: SK-MEL-5 melanoma
# [29] = tested on: A498 renal
# [30] = tested on: NCI-H522 lung
# [31] = tested on: SK-MEL-28 melanoma
# [32] = tested on: EKVX NSCLC
# [33] = tested on: SNB-19 CNS
# [34] = tested on: OVCAR-3 ovarian
# [35] = tested on: SNB-78 CNS
# [36] = tested on: SR leukemia
# [37] = tested on: UACC-62 melanoma
# [38] = tested on: TK-10 renal
# [39] = tested on: UACC-257 melanoma
# [40] = tested on: HCC-2998 colon
# [41] = tested on: OVCAR-4 ovarian
# [42] = tested on: HT29 colon
# [43] = tested on: U251 CNS
# [44] = tested on: HCT-116 colon
# [45] = tested on: HL-60(TB) leukemia
# [46] = tested on: IGROV1 ovarian
# [47] = tested on: SW-620 colon
# [48] = tested on: UO-31 renal
# [49] = tested on: LOX IMVI melanoma
# [50] = tested on: SF-539 CNS
# [51] = tested on: A549 NSCLC
# [52] = tested on: RPMI-8226 leukemia
# [53] = tested on: DMS 273 small cell lung
# [54] = tested on: ACHN renal
# [55] = tested on: SF-295 CNS
# [56] = tested on: HOP-92 NSCLC
# [57] = tested on: HCT-15 colon
# [58] = tested on: KM20L2 colon
# [59] = tested on: RXF-631 renal
smiles,measurement,setting,value
CC(C)CC12CC3CCC(CNC1=O)C32C (configuration not stated),TGI,[1],> 100 µM
same,TGI,[2],> 100 µM
same,TGI,[3],> 100 µM
same,TGI,[4],> 100 µM
same,TGI,[5],> 100 µM
same,TGI,[6],> 100 µM
same,TGI,[7],> 100 µM
same,TGI,[8],> 100 µM
same,TGI,[9],> 100 µM
same,TGI,[10],> 100 µM
same,TGI,[11],> 100 µM
same,TGI,[12],> 100 µM
same,TGI,[13],> 100 µM
same,TGI,[14],> 100 µM
same,TGI,[15],> 100 µM
same,TGI,[16],> 100 µM
same,TGI,[17],> 100 µM
same,TGI,[18],> 100 µM
same,TGI,[19],> 100 µM
same,TGI,[20],> 100 µM
same,TGI,[21],> 100 µM
same,TGI,[22],> 100 µM
same,TGI,[23],> 100 µM
same,TGI,[24],> 100 µM
same,TGI,[25],> 100 µM
same,TGI,[26],> 100 µM
same,TGI,[27],> 100 µM
same,TGI,[28],> 100 µM
same,TGI,[29],> 100 µM
same,TGI,[30],> 100 µM
same,TGI,[31],> 100 µM
same,TGI,[32],> 100 µM
same,TGI,[33],> 100 µM
same,TGI,[34],> 100 µM
same,TGI,[35],> 100 µM
same,TGI,[36],> 100 µM
same,TGI,[37],> 100 µM
same,TGI,[38],> 100 µM
same,TGI,[39],> 100 µM
same,TGI,[40],> 100 µM
same,TGI,[41],> 100 µM
same,TGI,[42],> 100 µM
same,TGI,[43],> 100 µM
same,TGI,[44],> 100 µM
same,TGI,[45],> 100 µM
same,TGI,[46],> 100 µM
same,TGI,[47],> 100 µM
same,TGI,[48],> 100 µM
same,TGI,[49],> 100 µM
same,TGI,[50],> 100 µM
same,TGI,[51],> 100 µM
same,TGI,[52],> 100 µM
same,TGI,[53],> 100 µM
same,TGI,[54],> 100 µM
same,TGI,[55],> 100 µM
same,TGI,[56],> 100 µM
O=C(N/C(=C\c1ccc(/C=C(\NC(=O)c2ccccc2)c2nc3ccccc3s2)cc1)c1nc2ccccc2s1)c1ccccc1,TGI,[1],29.9 µM
same,TGI,[2],19.2 µM
same,TGI,[3],26 µM
same,TGI,[4],25.9 µM
same,TGI,[5],26.7 µM
same,TGI,[6],12 µM
same,TGI,[7],3.49 µM
same,TGI,[8],10.9 µM
same,TGI,[10],26.7 µM
same,TGI,[11],32.3 µM
same,TGI,[57],16 µM
same,TGI,[12],31 µM
same,TGI,[13],12.6 µM
same,TGI,[14],34.3 µM
same,TGI,[16],16.5 µM
same,TGI,[17],25.2 µM
same,TGI,[18],21.1 µM
same,TGI,[19],> 100 µM
same,TGI,[20],14.6 µM
same,TGI,[21],15.2 µM
same,TGI,[22],5.28 µM
same,TGI,[23],22.6 µM
same,TGI,[24],28 µM
same,TGI,[25],11.9 µM
same,TGI,[26],5.51 µM
same,TGI,[27],32.6 µM
same,TGI,[28],17.8 µM
same,TGI,[29],32.5 µM
same,TGI,[30],4.1 µM
same,TGI,[31],24.2 µM
same,TGI,[32],14.5 µM
same,TGI,[33],14.5 µM
same,TGI,[34],12.1 µM
same,TGI,[35],62.3 µM
same,TGI,[37],12 µM
same,TGI,[38],25.2 µM
same,TGI,[39],17 µM
same,TGI,[40],27.8 µM
same,TGI,[41],19.6 µM
same,TGI,[42],19.1 µM
same,TGI,[43],6.2 µM
same,TGI,[44],30.9 µM
same,TGI,[45],5.71 µM
same,TGI,[46],18.6 µM
same,TGI,[47],14.8 µM
same,TGI,[48],10.7 µM
same,TGI,[49],13.3 µM
same,TGI,[58],11.2 µM
same,TGI,[59],20.6 µM
same,TGI,[50],4.61 µM
same,TGI,[51],35.2 µM
same,TGI,[52],37.3 µM
same,TGI,[53],10.8 µM
same,TGI,[54],16.7 µM
same,TGI,[55],16.1 µM
same,TGI,[56],25.6 µM
